Measurements taken from EP2832347B1, “Method for identifying patchouli odorant materials” (Takasago International Corporation, priority 2013, dated 2015).

Assays:
OR11L1 = target: T1, OR11L1 (Homo sapiens, UniProt Q8NGX0); test: CRE-luciferase reporter assay in HEKOlf cells transiently transfected with OR11L1; type: cell-based; conditions: Example 3; 10/30/100 µM
T1 construct: expressed in transfected cells; host or cells: HEKOlf (HEK293 stably expressing human Galpha-olf and bovine CNGA2)
T1 sequence (Q8NGX0 1-322): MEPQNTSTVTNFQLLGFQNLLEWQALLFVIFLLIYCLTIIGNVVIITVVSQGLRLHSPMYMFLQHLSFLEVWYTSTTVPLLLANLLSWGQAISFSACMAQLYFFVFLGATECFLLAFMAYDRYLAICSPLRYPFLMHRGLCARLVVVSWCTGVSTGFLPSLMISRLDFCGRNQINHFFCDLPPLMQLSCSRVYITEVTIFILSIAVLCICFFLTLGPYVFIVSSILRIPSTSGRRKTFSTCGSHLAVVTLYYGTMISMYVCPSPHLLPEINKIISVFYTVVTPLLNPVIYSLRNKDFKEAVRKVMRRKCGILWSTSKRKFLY
Description: (§1) The experiments were performed using a HEK293 cell line (deposited at the ATCC under accession n° CRL-1573) stably expressing the Gαolf G-protein and the cyclic nucleotide gated ion channel A2 subunit (CNGA2) (herein called HEKOlf). As described by Shirokova et al., 2005, the human Gαolf cDNA was cloned into the mammalian expression vector pPuro and cDNA for the bovine cyclic nucleotide gated ion channel A2 (CNGA2) subunit was cloned into the mammalian expression vector pcDNA3. Both constructs were transfected using Lipofectamine2000 (Invitrogen) following the manufacturer's instructions. Cellular clones stably expressing Gαolf and CNGA2 were obtained by antibiotic selection with 0.5µg/ml Puromycin and 200µg/ml Geneticin.
All odorants were stored in the dark at 4°C upon delivery. […]
In this assay, the interaction of an odorant with its cognate olfactory receptor leads to the activation of the human Gαolf G-protein. […] The cells were then transferred into an automated fluorometric imaging plate reader (FLIPR^TETRA, Molecular Devices). […]
The data obtained from different well replicates were analyzed with Excel, ScreenWorks, and SigmaPlot 10. […] The mean and standard deviation of the resulting fold of change values were calculated and plotted in vertical bar charts or concentration-response curves fitted by the SigmaPlot 10 software. […]

OR11A1 = target: T2, OR11A1 (Homo sapiens, UniProt Q9GZK7); test: CRE-luciferase reporter assay in HEKOlf cells transiently transfected with OR11A1; type: cell-based
T2 construct: expressed in transfected cells; host or cells: HEKOlf (HEK293 stably expressing human Galpha-olf and bovine CNGA2)
T2 sequence (Q9GZK7 1-315): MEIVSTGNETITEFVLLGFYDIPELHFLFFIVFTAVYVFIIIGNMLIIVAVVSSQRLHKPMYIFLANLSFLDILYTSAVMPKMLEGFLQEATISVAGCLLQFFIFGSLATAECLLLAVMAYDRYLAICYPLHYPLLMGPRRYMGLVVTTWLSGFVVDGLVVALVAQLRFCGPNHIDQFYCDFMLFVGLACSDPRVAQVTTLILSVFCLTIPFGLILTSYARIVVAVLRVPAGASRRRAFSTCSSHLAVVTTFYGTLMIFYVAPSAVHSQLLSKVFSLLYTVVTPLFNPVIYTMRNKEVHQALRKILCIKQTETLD
Description: as §1
All odorants were stored in the dark at 4°C upon delivery. They were prepared at 100mM stock solutions using DMSO as a solvent and stored at -20°C. On the day of the experiment the different stock solutions were directly diluted in the assay buffer (Tyrode's buffer) having the following composition: 5mM KCI, 130mM NaCl, 2mM CaCl2, 5mM NaHCO3, 1mM MgCl2, 20mM HEPES, pH7.4.
All transient transfections were performed with Lipofectamine 2000 (Invitrogen) according to the manufacturer's protocol. 10µl Lipofectamine 2000 were diluted in 500 µl DMEM and incubated for 5 minutes at room temperature. At the same time, 3µg of plasmid DNA were diluted in 500µl DMEM and added to the Lipofectamine 2000 mix to obtain a final volume of 1000µl. After incubation for a further 30 minutes at room temperature, the DNA-Lipofectamine complex was added to 1000µl of a cell suspension containing 1.600.000 cells/ml. Subsequently, 25µl per well of the complete mixture were seeded in black 384 well polystyrene assay plates. 25µl DMEM containing 20% FBS were added to each well 3 hours post-transfection.
The cDNAs for all olfactory receptors and an empty control vector were co-transfected with pGL4.29 (Promega). The pGL4.29 vector contains a cyclic adenosine monophosphate (cAMP) response element (CRE) that drives the transcription of the luciferase reporter gene luc2P (Photinus pyralis). luc2P is a synthetically-derived luciferase sequence with humanized codon optimization that is designed for high expression and reduced anomalous transcription.
In this assay, the interaction of an odorant with its cognate olfactory receptor leads to the activation of the human Gαolf G-protein. Gαolf is a stimulatory G-protein (Gαs) and activates adenylate cyclase, which converts adenosine triphosphate (ATP) into cAMP. Therefore, the activity of the transcribed luciferase can be used as an indication of olfactory receptor activation. 24 hours post-transfection the medium was removed from the transfected cells and 30 µl Tyrode's buffer containing the diluted odorants were added and incubated for 6 hours at 37°C. The cells were then transferred into an automated fluorometric imaging plate reader (FLIPR^TETRA, Molecular Devices). Subsequently, 25µl of a mixture composed of Triton X-100 and luciferin (1:1) were added. The addition of this mixture led to cell lyses and allowed interaction of the luciferase with its substrate luciferin resulting in a detectable emission of light.
The data obtained from different well replicates were analyzed with Excel, ScreenWorks, and SigmaPlot 10. The responses of each receptor to the odorants were divided by the mean responses of the receptor towards Tyrode's buffer (fold of change FOC1). The specificity of FOC1 was checked by comparing with a second FOC (FOC2) obtained by stimulating a control sample, consisting in an empty expression vector, with the same odorants and Tyrode's buffer. The mean and standard deviation of the resulting fold of change values were calculated and plotted in vertical bar charts or concentration-response curves fitted by the SigmaPlot 10 software.

C[C@H]1CC[C@@]2(O)C(C)(C)[C@@H]3CC[C@@]2(C)[C@H]1C3 [Patchouli alcohol]
response in cells transfected with OR11L1 (OR11L1): unable to elicit a detectable response
activation of OR11A1 (OR11A1; Example 3, 10/30/100 µM): strongly activated
EC50 (OR11A1; Example 4, Table 5, 0.03-100 µM tested): 12.1 ± 1.7 µM
Potency and efficacy on OR11A1 (comparison between odorants) (OR11A1; Example 4, 0.1 to 100 µM (Figure 6)): comparable
activation of OR11A1 (OR11A1; Example 4, 3, 10 and 30 µM (Figure 5)): activated
